Assay results: ChEMBL document CHEMBL4507274 (2021)

Assays:
[1] = biological target: Calcium/calmodulin-dependent protein kinase type 1 (Homo sapiens) (UniProt Q14012); conditions: Compound concentration 100.0 nM
[2] = biological target: 5-hydroxytryptamine receptor 1B (Homo sapiens) (UniProt P28222); conditions: Compound concentration 10.0 uM
[3] = biological target: Hepatocyte growth factor receptor (Homo sapiens) (UniProt P08581); conditions: Compound concentration 100.0 nM
[4] = biological target: Proto-oncogene tyrosine-protein kinase Src (Homo sapiens) (UniProt P12931); conditions: Compound concentration 100.0 nM
[5] = biological target: D(1B) dopamine receptor (Homo sapiens) (UniProt P21918); conditions: Compound concentration 10.0 uM
[6] = biological target: Serine/threonine-protein kinase 17B (Homo sapiens) (UniProt O94768); conditions: Compound concentration 100.0 nM
Serine/threonine-protein kinase 17B (Homo sapiens), sequence (O94768 whole entry): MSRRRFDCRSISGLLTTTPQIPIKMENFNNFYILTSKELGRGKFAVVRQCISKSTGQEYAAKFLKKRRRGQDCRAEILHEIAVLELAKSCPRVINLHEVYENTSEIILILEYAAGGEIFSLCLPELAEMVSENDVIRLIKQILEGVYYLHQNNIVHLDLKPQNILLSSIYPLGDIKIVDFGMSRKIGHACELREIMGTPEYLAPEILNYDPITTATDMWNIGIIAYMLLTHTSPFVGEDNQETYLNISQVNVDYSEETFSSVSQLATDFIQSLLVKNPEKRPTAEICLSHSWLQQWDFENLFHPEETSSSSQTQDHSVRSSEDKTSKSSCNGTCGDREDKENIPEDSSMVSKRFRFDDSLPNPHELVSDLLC

[7] = biological target: Protein-tyrosine kinase 6 (Homo sapiens) (UniProt Q13882); conditions: Compound concentration 100.0 nM
[8] = biological target: Atypical kinase COQ8B, mitochondrial (Homo sapiens) (UniProt Q96D53); conditions: Compound concentration 100.0 nM
Atypical kinase COQ8B, mitochondrial (Homo sapiens), sequence (Q96D53 whole entry): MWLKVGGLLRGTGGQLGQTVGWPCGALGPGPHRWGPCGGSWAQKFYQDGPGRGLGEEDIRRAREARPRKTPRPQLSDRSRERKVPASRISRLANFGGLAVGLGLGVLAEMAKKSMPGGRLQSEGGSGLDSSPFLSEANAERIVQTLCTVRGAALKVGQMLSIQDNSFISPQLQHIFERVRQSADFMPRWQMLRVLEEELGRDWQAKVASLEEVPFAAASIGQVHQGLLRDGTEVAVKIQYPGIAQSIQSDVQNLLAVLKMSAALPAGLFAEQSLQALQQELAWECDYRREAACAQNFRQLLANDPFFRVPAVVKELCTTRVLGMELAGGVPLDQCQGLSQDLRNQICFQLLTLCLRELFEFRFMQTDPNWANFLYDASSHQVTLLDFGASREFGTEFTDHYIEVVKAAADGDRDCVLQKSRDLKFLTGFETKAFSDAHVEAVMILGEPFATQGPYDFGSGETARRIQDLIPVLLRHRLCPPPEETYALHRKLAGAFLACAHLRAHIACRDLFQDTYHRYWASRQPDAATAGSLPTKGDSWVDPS

[9] = biological target: 5-hydroxytryptamine receptor 2B (Homo sapiens) (UniProt P41595); conditions: Compound concentration 10.0 uM
[10] = biological target: Cyclin-G-associated kinase (Homo sapiens) (UniProt O14976); conditions: Compound concentration 100.0 nM
[11] = biological target: Serine/threonine-protein kinase TAO2 (Homo sapiens) (UniProt Q9UL54); conditions: Compound concentration 100.0 nM
[12] = biological target: LIM domain kinase 2 (Homo sapiens) (UniProt P53671); conditions: Compound concentration 100.0 nM
[13] = biological target: Serine/threonine-protein kinase Chk2 (Homo sapiens) (UniProt O96017); conditions: Compound concentration 100.0 nM
[14] = biological target: Mitogen-activated protein kinase kinase kinase 11 (Homo sapiens) (UniProt Q16584); conditions: Compound concentration 100.0 nM
[15] = biological target: Serine/threonine-protein kinase 38-like (Homo sapiens) (UniProt Q9Y2H1); conditions: Compound concentration 100.0 nM
[16] = tested on: Tyrosine-protein kinase ABL1 (Homo sapiens), P00519 [H396P]; conditions: Compound concentration 100.0 nM
[17] = tested on: Mast/stem cell growth factor receptor Kit (Homo sapiens), P10721 [A829P]; conditions: Compound concentration 100.0 nM
[18] = biological target: Ribosomal protein S6 kinase alpha-2 (Homo sapiens) (UniProt Q15349); conditions: Compound concentration 100.0 nM
Ribosomal protein S6 kinase alpha-2 (Homo sapiens), sequence (Q15349 whole entry): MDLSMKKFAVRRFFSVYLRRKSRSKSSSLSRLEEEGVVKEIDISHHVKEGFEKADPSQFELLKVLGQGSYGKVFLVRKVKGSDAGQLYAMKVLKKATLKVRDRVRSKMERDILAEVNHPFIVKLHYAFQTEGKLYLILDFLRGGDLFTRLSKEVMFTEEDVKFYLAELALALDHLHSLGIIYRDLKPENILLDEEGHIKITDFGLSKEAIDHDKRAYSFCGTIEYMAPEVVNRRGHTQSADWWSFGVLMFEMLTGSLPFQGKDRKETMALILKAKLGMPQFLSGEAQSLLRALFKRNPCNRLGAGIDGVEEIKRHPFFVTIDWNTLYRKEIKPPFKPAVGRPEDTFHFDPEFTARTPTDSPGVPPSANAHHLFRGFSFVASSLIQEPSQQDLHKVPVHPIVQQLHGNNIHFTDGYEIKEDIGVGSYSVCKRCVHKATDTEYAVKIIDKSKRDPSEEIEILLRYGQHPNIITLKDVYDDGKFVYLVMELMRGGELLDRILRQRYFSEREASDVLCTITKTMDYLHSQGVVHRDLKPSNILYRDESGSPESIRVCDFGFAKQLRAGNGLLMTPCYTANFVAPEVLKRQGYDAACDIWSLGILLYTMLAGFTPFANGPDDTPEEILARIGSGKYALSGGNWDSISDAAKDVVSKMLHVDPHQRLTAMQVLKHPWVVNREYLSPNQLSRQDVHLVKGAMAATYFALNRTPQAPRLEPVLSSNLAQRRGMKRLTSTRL

[19] = biological target: Inhibitor of nuclear factor kappa-B kinase subunit epsilon (Homo sapiens) (UniProt Q14164); conditions: Compound concentration 100.0 nM
[20] = biological target: TGF-beta receptor type-2 (Homo sapiens) (UniProt P37173); conditions: Compound concentration 100.0 nM
[21] = biological target: Serine/threonine-protein kinase DCLK3 (Homo sapiens) (UniProt Q9C098); conditions: Compound concentration 100.0 nM
Serine/threonine-protein kinase DCLK3 (Homo sapiens), sequence (Q9C098 whole entry): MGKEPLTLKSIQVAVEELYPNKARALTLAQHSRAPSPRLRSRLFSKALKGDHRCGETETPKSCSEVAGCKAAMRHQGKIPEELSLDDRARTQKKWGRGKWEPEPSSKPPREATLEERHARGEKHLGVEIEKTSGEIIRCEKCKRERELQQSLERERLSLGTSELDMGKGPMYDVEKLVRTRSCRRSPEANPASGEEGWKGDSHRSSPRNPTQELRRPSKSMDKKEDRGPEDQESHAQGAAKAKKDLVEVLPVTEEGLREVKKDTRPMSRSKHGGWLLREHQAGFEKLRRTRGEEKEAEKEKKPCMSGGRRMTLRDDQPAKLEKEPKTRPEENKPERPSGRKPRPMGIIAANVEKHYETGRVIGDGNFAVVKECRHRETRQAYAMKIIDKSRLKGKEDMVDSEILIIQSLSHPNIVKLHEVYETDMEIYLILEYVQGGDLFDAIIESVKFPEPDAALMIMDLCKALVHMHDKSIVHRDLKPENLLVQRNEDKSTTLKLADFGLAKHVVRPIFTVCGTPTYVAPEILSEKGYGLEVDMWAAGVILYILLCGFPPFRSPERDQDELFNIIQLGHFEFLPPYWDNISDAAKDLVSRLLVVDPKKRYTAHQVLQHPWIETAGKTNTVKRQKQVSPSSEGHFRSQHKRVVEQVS

[22] = biological target: Cyclin-dependent kinase 7 (Homo sapiens) (UniProt P50613); conditions: Compound concentration 100.0 nM
[23] = biological target: Serine/threonine-protein kinase 16 (Homo sapiens) (UniProt O75716); conditions: Compound concentration 100.0 nM
Serine/threonine-protein kinase 16 (Homo sapiens), sequence (O75716 whole entry): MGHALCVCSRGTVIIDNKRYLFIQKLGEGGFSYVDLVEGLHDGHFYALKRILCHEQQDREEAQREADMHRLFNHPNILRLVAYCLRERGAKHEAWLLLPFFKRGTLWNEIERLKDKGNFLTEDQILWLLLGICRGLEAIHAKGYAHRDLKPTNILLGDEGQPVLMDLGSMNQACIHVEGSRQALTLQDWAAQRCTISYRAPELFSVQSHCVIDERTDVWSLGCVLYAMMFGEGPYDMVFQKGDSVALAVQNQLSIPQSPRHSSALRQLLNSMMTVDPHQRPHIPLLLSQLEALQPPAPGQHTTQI

[24] = biological target: Serine/threonine-protein kinase 25 (Homo sapiens) (UniProt O00506); conditions: Compound concentration 100.0 nM
[25] = biological target: Ribosomal protein S6 kinase alpha-2 (Homo sapiens) (UniProt Q15349); conditions: Compound concentration 100.0 nM; remark: listed apart in the source
[26] = biological target: Ephrin type-A receptor 2 (Homo sapiens) (UniProt P29317); conditions: Compound concentration 100.0 nM
Ephrin type-A receptor 2 (Homo sapiens), sequence (P29317 whole entry): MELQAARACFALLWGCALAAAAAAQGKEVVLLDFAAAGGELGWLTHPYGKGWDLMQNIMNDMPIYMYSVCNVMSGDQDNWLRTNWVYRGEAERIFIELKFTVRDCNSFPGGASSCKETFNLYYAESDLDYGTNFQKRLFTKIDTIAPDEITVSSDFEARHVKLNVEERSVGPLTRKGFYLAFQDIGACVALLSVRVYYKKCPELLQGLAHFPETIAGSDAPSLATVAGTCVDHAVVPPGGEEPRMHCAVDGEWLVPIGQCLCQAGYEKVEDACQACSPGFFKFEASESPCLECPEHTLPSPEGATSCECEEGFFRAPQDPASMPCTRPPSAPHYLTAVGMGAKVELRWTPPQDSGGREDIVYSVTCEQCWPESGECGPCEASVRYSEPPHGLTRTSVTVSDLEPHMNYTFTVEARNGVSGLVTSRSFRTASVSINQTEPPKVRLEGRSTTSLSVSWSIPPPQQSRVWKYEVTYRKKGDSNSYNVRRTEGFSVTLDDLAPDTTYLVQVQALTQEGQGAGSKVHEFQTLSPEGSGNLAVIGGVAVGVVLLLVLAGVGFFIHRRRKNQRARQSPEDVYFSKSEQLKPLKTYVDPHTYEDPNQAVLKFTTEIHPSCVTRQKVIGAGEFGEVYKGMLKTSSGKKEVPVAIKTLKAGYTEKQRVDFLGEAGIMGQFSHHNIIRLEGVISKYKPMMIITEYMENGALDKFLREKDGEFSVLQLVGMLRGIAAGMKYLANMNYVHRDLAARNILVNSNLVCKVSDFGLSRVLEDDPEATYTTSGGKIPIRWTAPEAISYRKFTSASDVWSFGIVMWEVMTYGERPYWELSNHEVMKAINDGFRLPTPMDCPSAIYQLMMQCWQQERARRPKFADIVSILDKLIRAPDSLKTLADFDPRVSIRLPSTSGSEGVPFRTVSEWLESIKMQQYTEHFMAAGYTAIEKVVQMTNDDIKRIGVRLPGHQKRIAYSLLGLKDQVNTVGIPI

[27] = biological target: Serine/threonine-protein kinase tousled-like 2 (Homo sapiens) (UniProt Q86UE8); conditions: Compound concentration 100.0 nM
[28] = biological target: Tyrosine-protein kinase JAK2 (Homo sapiens) (UniProt O60674); conditions: Compound concentration 100.0 nM
[29] = biological target: Macrophage-stimulating protein receptor (Homo sapiens) (UniProt Q04912); conditions: Compound concentration 100.0 nM
[30] = biological target: Cyclin-dependent kinase 5 (Homo sapiens) (UniProt Q00535); conditions: Compound concentration 100.0 nM
[31] = tested on: Tyrosine-protein kinase ABL1 (Homo sapiens), P00519 [H396P]; conditions: Compound concentration 100.0 nM; remark: listed apart in the source
[32] = biological target: Alpha-2B adrenergic receptor (Homo sapiens) (UniProt P18089); conditions: Compound concentration 10.0 uM
[33] = biological target: Histamine H2 receptor (Homo sapiens) (UniProt P25021); conditions: Compound concentration 10.0 uM
Histamine H2 receptor (Homo sapiens), sequence (P25021 whole entry): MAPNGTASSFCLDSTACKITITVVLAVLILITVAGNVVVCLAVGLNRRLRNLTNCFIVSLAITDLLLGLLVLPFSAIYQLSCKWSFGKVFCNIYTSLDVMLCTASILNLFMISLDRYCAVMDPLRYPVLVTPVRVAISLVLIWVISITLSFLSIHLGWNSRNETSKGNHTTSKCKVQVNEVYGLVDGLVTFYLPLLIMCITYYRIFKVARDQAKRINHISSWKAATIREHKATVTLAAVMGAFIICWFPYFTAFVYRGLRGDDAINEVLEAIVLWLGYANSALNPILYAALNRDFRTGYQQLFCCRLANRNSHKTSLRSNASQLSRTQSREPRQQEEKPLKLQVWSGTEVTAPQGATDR

[34] = biological target: SNF-related serine/threonine-protein kinase (Homo sapiens) (UniProt Q9NRH2); conditions: Compound concentration 100.0 nM
[35] = biological target: Serine/threonine-protein kinase Sgk3 (Homo sapiens) (UniProt Q96BR1); conditions: Compound concentration 100.0 nM
[36] = biological target: Megakaryocyte-associated tyrosine-protein kinase (Homo sapiens) (UniProt P42679); conditions: Compound concentration 100.0 nM
[37] = biological target: Serine/threonine-protein kinase MRCK alpha (Homo sapiens) (UniProt Q5VT25); conditions: Compound concentration 100.0 nM
[38] = biological target: High affinity nerve growth factor receptor (Homo sapiens) (UniProt P04629); conditions: Compound concentration 100.0 nM
[39] = biological target: Serine/threonine-protein kinase PknB (Mycobacterium tuberculosis) (UniProt P9WI81); conditions: Compound concentration 100.0 nM
[40] = biological target: Phosphatidylinositol 4-phosphate 5-kinase type-1 gamma (Homo sapiens) (UniProt O60331); conditions: Compound concentration 100.0 nM
Phosphatidylinositol 4-phosphate 5-kinase type-1 gamma (Homo sapiens), sequence (O60331 whole entry): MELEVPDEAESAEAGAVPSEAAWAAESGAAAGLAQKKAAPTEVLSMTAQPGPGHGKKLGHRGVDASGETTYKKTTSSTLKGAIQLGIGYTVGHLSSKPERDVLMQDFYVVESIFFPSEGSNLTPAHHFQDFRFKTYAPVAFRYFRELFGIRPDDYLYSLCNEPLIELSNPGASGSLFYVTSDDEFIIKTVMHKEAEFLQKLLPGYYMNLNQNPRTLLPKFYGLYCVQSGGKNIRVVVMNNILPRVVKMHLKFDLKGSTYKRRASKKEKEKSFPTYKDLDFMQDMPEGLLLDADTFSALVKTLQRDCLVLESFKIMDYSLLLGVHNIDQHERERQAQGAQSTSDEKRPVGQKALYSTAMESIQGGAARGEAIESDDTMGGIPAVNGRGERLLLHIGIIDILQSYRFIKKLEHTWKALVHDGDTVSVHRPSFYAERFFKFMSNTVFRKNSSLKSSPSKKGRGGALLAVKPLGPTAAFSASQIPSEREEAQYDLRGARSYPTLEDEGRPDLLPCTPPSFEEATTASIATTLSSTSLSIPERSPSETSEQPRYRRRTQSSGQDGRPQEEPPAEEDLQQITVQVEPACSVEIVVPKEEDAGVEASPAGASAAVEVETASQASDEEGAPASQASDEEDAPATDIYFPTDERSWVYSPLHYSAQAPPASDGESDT

[41] = biological target: Serine/threonine-protein kinase PAK 6 (Homo sapiens) (UniProt Q9NQU5); conditions: Compound concentration 100.0 nM
[42] = biological target: Phosphatidylinositol 4,5-bisphosphate 3-kinase catalytic subunit delta isoform (Homo sapiens) (UniProt O00329); conditions: Compound concentration 100.0 nM
[43] = biological target: Mitogen-activated protein kinase kinase kinase kinase 5 (Homo sapiens) (UniProt Q9Y4K4); conditions: Compound concentration 100.0 nM
[44] = biological target: Mitogen-activated protein kinase 6 (Homo sapiens) (UniProt Q16659); conditions: Compound concentration 100.0 nM
[45] = biological target: Dual specificity testis-specific protein kinase 1 (Homo sapiens) (UniProt Q15569); conditions: Compound concentration 100.0 nM

Calcium/calmodulin-dependent protein kinase type 1 (Homo sapiens), sequence (Q14012 whole entry, looked up): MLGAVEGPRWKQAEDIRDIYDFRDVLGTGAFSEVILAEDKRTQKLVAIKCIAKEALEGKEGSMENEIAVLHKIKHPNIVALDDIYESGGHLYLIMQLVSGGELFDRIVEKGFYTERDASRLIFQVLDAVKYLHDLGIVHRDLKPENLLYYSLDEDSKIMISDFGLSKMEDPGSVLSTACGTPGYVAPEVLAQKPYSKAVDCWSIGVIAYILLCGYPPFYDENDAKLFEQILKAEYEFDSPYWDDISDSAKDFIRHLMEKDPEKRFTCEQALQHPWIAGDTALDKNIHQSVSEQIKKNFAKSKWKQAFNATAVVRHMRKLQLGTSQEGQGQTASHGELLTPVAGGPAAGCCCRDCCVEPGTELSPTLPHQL

Cn1cc(Cl)c2c(Oc3c(F)cc(Nc4cc(Cl)nc(N)n4)cc3F)ccnc21 [BAY-4900]
inactive: residual activity [1] 100% | inhibition [2] 5.3% | residual activity [3] 90% | residual activity [4] 92% | inhibition [5] 9.8% | residual activity [6] 84% | residual activity [7] 86% | residual activity [8] 89% | inhibition [9] 17.3% | residual activity [10] 100% | residual activity [11] 100% | residual activity [12] 100% | residual activity [13] 94% | residual activity [14] 100% | residual activity [15] 100% | residual activity [16] 95% | residual activity [17] 63% | residual activity [18] 100% | residual activity [19] 100% | residual activity [20] 90% | residual activity [21] 89% | residual activity [22] 100% | residual activity [23] 100% | residual activity [24] 100% | residual activity [25] 95% | residual activity [26] 100% | residual activity [27] 100% | residual activity [28] 72% | residual activity [29] 87% | residual activity [30] 100% | residual activity [31] 84% | inhibition [32] -4.05% | inhibition [33] 16.7% | residual activity [34] 86% | residual activity [35] 90% | residual activity [36] 97% | residual activity [37] 84% | residual activity [38] 74% | residual activity [39] 100% | residual activity [40] 93% | residual activity [41] 100% | residual activity [42] 51% | residual activity [43] 91% | residual activity [44] 100% | residual activity [45] 100%

Cc1c[nH]c2nccc(Oc3c(F)cc(Nc4cc(Cl)nc(N)n4)cc3F)c12 [BAY-549]
inactive: residual activity [1] 92% | inhibition [2] -5.28% | residual activity [3] 83% | residual activity [4] 100% | inhibition [5] 21.9% | residual activity [6] 100% | residual activity [7] 100% | residual activity [8] 88% | inhibition [9] 10.4% | residual activity [10] 100% | residual activity [11] 100% | residual activity [12] 79% | residual activity [13] 89% | residual activity [14] 100% | residual activity [15] 87% | residual activity [16] 95% | residual activity [17] 70% | residual activity [18] 100% | residual activity [19] 93% | residual activity [20] 100% | residual activity [21] 97% | residual activity [22] 91% | residual activity [23] 87% | residual activity [24] 100% | residual activity [25] 82% | residual activity [26] 100% | residual activity [27] 95% | residual activity [28] 75% | residual activity [29] 74% | residual activity [30] 94% | residual activity [31] 82% | inhibition [32] 11.7% | inhibition [33] 23.7% | residual activity [34] 77% | residual activity [35] 88% | residual activity [36] 88% | residual activity [37] 98% | residual activity [38] 81% | residual activity [39] 98% | residual activity [40] 78% | residual activity [41] 82% | residual activity [42] 51% | residual activity [43] 93% | residual activity [44] 95% | residual activity [45] 100%
